Assay results as given in patent publication US12116421B2, “Peptide-based Dopa containing adhesive gels” (KING ABDULLAH UNIVERSITY OF SCIENCE AND TECHNOLOGY, priority 2020, dated 2024).
Where a SMILES comes first, the peptide text is derived from it. [ ]: non-standard residue; d: D form. Dopa = N[C@@H](Cc1ccc(O)c(O)c1)C(=O)O; Cha = N[C@@H](CC1CCCCC1)C(=O)O

Tests used:
[1] = AFM force spectroscopy adhesion measurement in liquid; assay type: physicochemical; conditions: for reduction of adhesion force by addition of NaCl: NaCl versus MilliQ water
Protocol: In one embodiment, the peptides were dissolved in the proper solution at a concentration of 10 mg/mL. The peptide solutions were spotted on a freshly cleaved mica sheet and the measurement was performed in liquid.
In one embodiment, the adhesion properties of the Dopa peptides are influenced by the construct lysine-Dopa and by the position of the catechol moiety in the peptide sequence, as indicated by the AFM force spectroscopy results in liquid. In a typical force spectroscopy curve the probe is several times approached to the surface and retracted and for every cycle of retraction the maximum force of adhesion is recorded. The incorporation of a catechol moiety near a lysine would enhance adhesion to negatively charged surfaces. FIG. 28 illustrates the effect of lysine on adhesion to negatively charged surfaces. Therefore, probes and substrates that were manifesting negative charges on their surfaces, such as the silicon probe and the freshly cleaved mica substrate, are used in the AFM spectroscopy. The setup of probe and substrate is illustrated in FIG. 29.
The peptides dissolved in the proper solution at 13 mM concentration each, were spotted on a freshly cleaved mica sheet and the measurement was performed in liquid. Several force curves were recorded for different buffers. […] In FIG. 30, the inset image represents the maximum extension of each peptide dissolved in water, when manually pulled between two glass slides. Also in FIG. 30, the approach part of the curve contains the important information defined as “jump to contact”, while the retract part of the F-D curve contains the adhesion force value. […] Two controls were also introduced: namely the original peptide IIZK, and an alternative peptide IIFK. To better understand the influence of Dopa on the adhesion properties of the peptide, the original short peptide IIZK would make a perfect negative control. We also introduced as a control the IIFK peptide in order to understand the effect of IIZK itself on adhesion. In FIG. 32, statistical significance expressed as p<0.01.
AFM topography measurements were performed on a Dimension Icon SPM (Bruker®). The samples were prepared as follows: peptides were dissolved at 13 mM concentration in MilliQ® water; after 30 minutes, 20 μl of these solutions were dropped on freshly cleaved mica sheets and immediately dried with an N2 stream. Measurements were immediately performed in tapping mode in air by the use of an AFM probe AC_240TS_R3 (Olympus®) with nominal free oscillation at roughly 70 kHz and a nominal spring constant of 2 N/m. The probe was calibrated by contact-free method.^54 Free oscillation amplitude was set at 200 mV with a 5% damping during tapping mode measurement. AFM adhesion measurements were performed on a JPK Nanowizard™ III mounted on Olympus® IX-81 inverted optical microscope. A mica sheet was glued one day before the experiment with double component epoxy glue to a glass slide and enclosed in a plastic o-ring provided by the JPK company for liquid measurements. Each peptide was dissolved in MilliQ® water at a concentration of 13 mM and mixed gently. Starting with the measurement in MilliQ® water, 50 μL of the solution were dropped on the freshly cleaved mica sheet within 5 minutes from the preparation of the solution and let equilibrate for 10 minutes. After, the excess solution was removed by pipetting and discarded. Then 1 mL of MilliQ® water was added gently from the side and after 5 minutes, the sample was rinsed 3 times by additional 1 mL MilliQ® water. Finally, the sample was measured by AFM force spectroscopy (Quantitative imaging mode) with additional 1 mL MilliQ® water. The MilliQ® water was exchanged after the measurement alternatively with a water solution containing 137 mM NaCl or 10 mM Phosphate ions (a combination of Na2HPO4·7H2O and NaH2PO4·H2O to reach pH 7.4). After performing the force spectroscopy map in these two different solutions, eventually, the liquid was exchanged with 1×PBS pH 7.4. […]

[2] = tested on: mouse myoblast cells (C2C12); test: Cytocompatibility of peptide nanogels, 3D culture, MTT and live/dead staining; assay type: cell-based
Protocol: In one embodiment, cytocompatibility of the peptide nanogels was evaluated using mouse myoblast cells (C2C12). After 24 hours of incubation, cell proliferation was tested with DoIIZK, IIZDoK, IIZKDo, IIZ(KDo)2 and IIZ(KDo)3 at a concentration of 3 mg/mL to evaluate biocompatibility. The MTT (3-(4,5-dimethylthiazol-2-yl)-2,5-diphenyltetrazolium bromide) assay was used in order to quantify the number of viable cells. In one embodiment, a standard curve for a known number of cells was also plotted. In one embodiment, the test results were compared to the positive control 2D culture. A positive indication of cytocompatibility would be the survival of the cells following incubation with the peptides. For comparison, peptides DoIIZK, IIZDoK, IIZKDo, IIZ(KDo)2 and IIZ(KDo)3 were tested as part of the study. The cytocompatibilty of all peptides tested was evaluated by quantifying the survival cells by visualising the live/dead cells using calcein AM and Ethidium bromide staining.
Poli-D Lysine (PDL) was used for 2D control. The scalebar in FIG. 35 is 200 μm. Cytocompatibility of all peptides was evaluated by quantifying the survival cells by visualising the live/dead cells using calcein AM and Ethidium homodimer staining. The live cells are stained green by calcein AM, while the dead cells are stained red by Ethidium homodimer.
For mouse myoblast cells (C2C12) culture expansion, C2C12 cells were cultured either in a T175 or T75 culture flask in complete DMEM media (10% FBS and 1% P/S). The cells were placed in a humidified incubator at 37° C., with 95% air and 5% CO2. Then they were subcultured using trypsin at approximately 80% confluence. Fresh culture media was added every 48 h to each well, after removing the previous media.
For 3D culture of mouse myoblast cells in peptide hydrogels and cell viability assay, C2C12 cells were encapsulated in peptide hydrogels in a 96-well plate.^61 Briefly, peptide solutions DopaIIZK, IIZDopaK, IIZKDopa (3 mg/mL) were added to 40 μL/well. Mouse myoblast cells (30,000 cells/well) that were re-suspended in 2×PBS were then, mixed gently with the peptide solutions. The gelation time was 1-3 min for all 5 peptides. Subsequently, the culture medium was added to the wells.
The viability of 3D cultured cells was assessed using the LIVE/DEAD Viability/Cytotoxicity Kit (ThermoFisher®, USA)^11. Calcein acetoxymethyl ester (Calcein-AM) is used to detect viable cells and ethidium homodimer-I (EthD-I) is used to detect dead cells. Briefly, staining with 2 μM of Calcein-AM and 4 μM of EthD-1 is performed after washing with Dulbecco's phosphate-buffered saline (D-PBS). After 30 minutes incubation, the staining solution was discarded, and 1×D-PBS was added to each well before imaging. Stained cells were imaged with an inverted confocal microscope (Zeiss® LSM 710 Inverted Confocal Microscope, Germany) or ZEISS® fluorescent microscope.

SMILES	Force of adhesion (Geometric Mean) ([1]; 10 mM PO4, peptide 13 mM) [PN]	Force of adhesion (Geometric Mean) ([1]; 137 mM NaCl, peptide 13 mM) [PN]	Force of adhesion (Geometric Mean) ([1]; 1×PBS, peptide 13 mM) [PN]	Force of adhesion (Geometric Mean) ([1]; MilliQ water, peptide 13 mM) [PN]	reduction of adhesion force by addition of NaCl [1]	biocompatibility with C2C12 cells [2]	cell viability / toxicity [2]	metabolic activity of cells versus 2D cultures [2]	time cells stay metabolically active in nanogel [2]
CC[C@H](C)[C@H](NC(=O)[C@H](Cc1ccc(O)c(O)c1)NC(C)=O)C(=O)N[C@H](C(=O)N[C@@H](CC1CCCCC1)C(=O)N[C@@H](CCCCN)C(N)=O)[C@@H](C)CC [DoIIZK, Ac-Dopa-Ile-Ile-Cha-Lys-NH2] (Ac-[Dopa]II[Cha]K-NH2)	34.81	64.64	13.36	112.7	about 50%	biocompatible	good viability	consistently comparable to 2D cultures	metabolically active for up to day 21
CC[C@H](C)[C@H](NC(C)=O)C(=O)N[C@H](C(=O)N[C@@H](CC1CCCCC1)C(=O)N[C@@H](Cc1ccc(O)c(O)c1)C(=O)N[C@@H](CCCCN)C(N)=O)[C@@H](C)CC [IIZDoK, Ac-Ile-Ile-Cha-Dopa-Lys-NH2] (Ac-II[Cha][Dopa]K-NH2)	22.47	44.01	23.33	72	about 50%	biocompatible	good viability	consistently comparable to 2D cultures	metabolically active for up to day 21
CC[C@H](C)[C@H](NC(C)=O)C(=O)N[C@H](C(=O)N[C@@H](CC1CCCCC1)C(=O)N[C@@H](CCCCN)C(=O)N[C@@H](Cc1ccc(O)c(O)c1)C(N)=O)[C@@H](C)CC [IIZKDo, Ac-Ile-Ile-Cha-Lys-Dopa-NH2] (Ac-II[Cha]K[Dopa]-NH2)	13.89	76.89	29.5645	73.31	did not significantly impact	biocompatible	good viability	consistently comparable to 2D cultures	metabolically active for up to day 21
